Activity calls are given as the source filed them. No cut-off for these calls is given here.
Columns and labels:
Mus musculus [1] = assay: Anticonvulsant activity in albino CF1 mouse assessed as protection against maximal electroshock-induced seizures at 300 mg/kg, ip after 0.5 hrs; format: functional, organism-based; set-up: dose 300 mg/kg
Mus musculus [2] = assay: Neurotoxicity in ip dosed albino CF1 mouse assessed as minimum dose required to cause toxicity after 0.5 hrs by rotarod test; format: organism-based; details: in vivo
Rattus norvegicus [3] = assay: Anticonvulsant activity in albino Sprague-Dawley rat assessed as protection against maximal electroshock-induced seizures at 30 mg/kg, po after 2 hrs; format: functional, organism-based; set-up: dose 30 mg/kg
Mus musculus [4] = assay: Neurotoxicity in albino CF1 mouse assessed as minimal motor impairment at 100 mg/kg, ip after 0.25 hrs by rotarod test; format: toxicity, organism-based; set-up: dose 100 mg/kg, route intraperitoneal; details: in vivo
Mus musculus [5] = assay: Anticonvulsant activity in albino CF1 mouse assessed as protection against subcutaneous metrazole-induced seizures at 30 mg/kg, ip after 4 hrs; format: functional, organism-based; set-up: dose 30 mg/kg
Mus musculus [6] = assay: Anticonvulsant activity in albino CF1 mouse assessed as protection against maximal electroshock-induced seizures at 100 mg/kg, ip after 0.5 hrs; format: functional, organism-based; set-up: dose 100 mg/kg
Mus musculus [7] = assay: Anticonvulsant activity in albino CF1 mouse assessed as protection against subcutaneous metrazole-induced seizures at 100 mg/kg, ip after 0.5 hrs; format: functional, organism-based; set-up: dose 100 mg/kg
Mus musculus [8] = assay: Neurotoxicity in ip dosed albino CF1 mouse assessed as minimum dose required to cause toxicity after 4 hrs by rotarod test; format: organism-based; details: in vivo
Mus musculus [9] = assay: Anticonvulsant activity in albino CF1 mouse assessed as protection against subcutaneous metrazole-induced seizures at 300 mg/kg, ip after 1 hr; format: functional, organism-based; set-up: dose 300 mg/kg
Mus musculus [10] = assay: Anticonvulsant activity in albino CF1 mouse assessed as protection against subcutaneous metrazole-induced seizures at 75 mg/kg, ip after 1 hr; format: functional, organism-based; set-up: dose 75 mg/kg
Mus musculus [11] = assay: Anticonvulsant activity in albino CF1 mouse assessed as protection against maximal electroshock-induced seizures at 60 mg/kg, ip after 1 hr; format: functional, organism-based; set-up: dose 60 mg/kg
Mus musculus [12] = assay: Neurotoxicity in albino CF1 mouse assessed as minimal motor impairment at 30 mg/kg, ip after 4 hrs by rotarod test; format: toxicity, organism-based; set-up: dose 30 mg/kg, route intraperitoneal; details: in vivo
Mus musculus [13] = assay: Neurotoxicity in albino CF1 mouse assessed as minimal motor impairment at 100 mg/kg, ip after 4 hrs by rotarod test; format: toxicity, organism-based; set-up: dose 100 mg/kg, route intraperitoneal; details: in vivo
Mus musculus [14] = assay: Anticonvulsant activity in albino CF1 mouse assessed as protection against maximal electroshock-induced seizures at 100 mg/kg, ip after 2 hrs; format: functional, organism-based; set-up: dose 100 mg/kg
Mus musculus [15] = assay: Anticonvulsant activity in albino CF1 mouse assessed as protection against subcutaneous metrazole-induced seizures at 300 mg/kg, ip after 0.5 hrs; format: functional, organism-based; set-up: dose 300 mg/kg
[16] = biological target: Sodium channel protein type 2 subunit alpha (Homo sapiens, UniProt Q99250); assay: Inhibition of human NaV1.2 expressed in HEK cells at -60 mV holding potential by patch clamp recording technique; format: cell-based, HEK293
Mus musculus [17] = assay: Anticonvulsant activity against maximal electroshock-induced seizures in ip dosed albino CF1 mouse assessed as minimum effective dose after 0.5 hrs; format: functional; details: read-out: MED
Mus musculus [18] = assay: Anticonvulsant activity against maximal electroshock-induced seizures in ip dosed albino CF1 mouse assessed as minimum effective dose after 4 hrs; format: functional; details: read-out: MED
Mus musculus [19] = assay: Anticonvulsant activity in albino CF1 mouse assessed as protection against maximal electroshock-induced seizures at 100 mg/kg, ip after 4 hrs; format: functional, organism-based; set-up: dose 100 mg/kg
Rattus norvegicus [20] = assay: Anticonvulsant activity in albino Sprague-Dawley rat assessed as protection against maximal electroshock-induced seizures at 30 mg/kg, po after 0.25 hrs; format: functional, organism-based; set-up: dose 30 mg/kg
Mus musculus [21] = assay: Neurotoxicity in albino CF1 mouse assessed as minimal motor impairment at 300 mg/kg, ip after 0.5 hrs by rotarod test; format: toxicity, organism-based; set-up: dose 300 mg/kg, route intraperitoneal; details: in vivo
Mus musculus [22] = assay: Anticonvulsant activity in albino CF1 mouse assessed as protection against maximal electroshock-induced seizures at 30 mg/kg, ip after 4 hrs; format: functional, organism-based; set-up: dose 30 mg/kg
Mus musculus [23] = assay: Anticonvulsant activity ip dosed albino CF1 mouse assessed as protection against maximal electroshock-induced seizures after 0.25 hrs; format: functional
Mus musculus [24] = assay: Neurotoxicity in albino CF1 mouse assessed as minimal motor impairment at 140 mg/kg, ip after 1 hr by rotarod test; format: toxicity, organism-based; set-up: dose 140 mg/kg, route intraperitoneal; details: in vivo
Mus musculus [25] = assay: Neurotoxicity in albino CF1 mouse assessed as minimal motor impairment at 30 to 300 mg/kg, ip after 0.5 hrs by rotarod test; details: in vivo
Mus musculus [26] = assay: Anticonvulsant activity in albino CF1 mouse assessed as protection against subcutaneous metrazole-induced seizures at 300 mg/kg, ip after 4 hrs; format: functional, organism-based; set-up: dose 300 mg/kg
Mus musculus [27] = assay: Anticonvulsant activity in albino CF1 mouse assessed as protection against subcutaneous metrazole-induced seizures at 100 mg/kg, ip after 4 hrs; format: functional, organism-based; set-up: dose 100 mg/kg
Mus musculus [28] = assay: Neurotoxicity in albino CF1 mouse assessed as minimal motor impairment at 100 mg/kg, ip after 1 hr by rotarod test; format: toxicity, organism-based; set-up: dose 100 mg/kg, route intraperitoneal; details: in vivo
Rattus norvegicus [29] = assay: Neurotoxicity in albino Sprague-Dawley rat assessed as minimal motor impairment at 30 mg/kg, po by rotarod test; format: toxicity, organism-based; set-up: dose 30 mg/kg, route oral; details: in vivo
Rattus norvegicus [30] = assay: Anticonvulsant activity in albino Sprague-Dawley rat assessed as protection against maximal electroshock-induced seizures at 30 mg/kg, po after 1 hr; format: functional, organism-based; set-up: dose 30 mg/kg
Mus musculus [31] = assay: Anticonvulsant activity in albino CF1 mouse assessed as protection against maximal electroshock-induced seizures at 300 mg/kg, ip after 4 hrs; format: functional, organism-based; set-up: dose 300 mg/kg
Mus musculus [32] = assay: Anticonvulsant activity in albino CF1 mouse assessed as protection against subcutaneous metrazole-induced seizures at 30 mg/kg, ip after 0.5 hrs; format: functional, organism-based; set-up: dose 30 mg/kg
Rattus norvegicus [33] = assay: Anticonvulsant activity in albino Sprague-Dawley rat assessed as protection against maximal electroshock-induced seizures at 30 mg/kg, po after 0.5 hrs; format: functional, organism-based; set-up: dose 30 mg/kg
Mus musculus [34] = assay: Anticonvulsant activity in albino CF1 mouse assessed as protection against subcutaneous metrazole-induced seizures at 150 mg/kg, ip after 1 hr; format: functional, organism-based; set-up: dose 150 mg/kg
Mus musculus [35] = organism: Mus musculus; assay: Protective index, ratio of TD50 for albino CF1 mouse by rotarod test to ED50 for albino CF1 mouse by maximal electroshock seizures test; format: functional
[36] = Neurotoxicity in ip dosed albino CF1 mouse assessed as minimal motor impairment after 1 hr by rotarod test; format: toxicity, organism-based; details: in vivo
Mus musculus [37] = organism: Mus musculus; assay: Protective index, ratio of TD50 for albino CF1 mouse after 1 hr by rotarod test to ED50 for albino CF1 mouse by maximal electroshock seizures test after 1 hr; format: functional
Mus musculus [38] = assay: Anticonvulsant activity in albino CF1 mouse assessed as protection against maximal electroshock-induced seizures at 30 mg/kg, ip after 0.5 hrs; format: functional, organism-based; set-up: dose 30 mg/kg
Mus musculus [39] = assay: Anticonvulsant activity against subcutaneous metrazole-induced seizures in ip dosed albino CF1 mouse assessed as minimum effective dose after 4 hrs; format: functional; details: albino CF1, 4 h, read-out: MED
Mus musculus [40] = assay: Neurotoxicity in albino CF1 mouse assessed as minimal motor impairment at 100 mg/kg, ip after 0.5 hrs by rotarod test; format: toxicity, organism-based; set-up: dose 100 mg/kg, route intraperitoneal; details: in vivo
Mus musculus [41] = assay: Neurotoxicity in albino CF1 mouse assessed as minimal motor impairment at 30 to 300 mg/kg, po after 4 hrs by rotarod test; format: toxicity, organism-based; set-up: dose 30-300 mg/kg, route oral; details: in vivo
Mus musculus [42] = assay: Anticonvulsant activity ip dosed albino CF1 mouse assessed as protection against maximal electroshock-induced seizures after 1 hr; format: functional
Mus musculus [43] = assay: Neurotoxicity in albino CF1 mouse assessed as minimal motor impairment at 100 mg/kg, ip after 2 hrs by rotarod test; format: toxicity, organism-based; set-up: dose 100 mg/kg, route intraperitoneal; details: in vivo
Mus musculus [44] = assay: Neurotoxicity in albino CF1 mouse assessed as minimal motor impairment at 30 mg/kg, ip after 0.5 hrs by rotarod test; format: toxicity, organism-based; set-up: dose 30 mg/kg, route intraperitoneal; details: in vivo
Mus musculus [45] = assay: Neurotoxicity in albino CF1 mouse assessed as minimal motor impairment at 300 mg/kg, ip after 4 hrs by rotarod test; format: toxicity, organism-based; set-up: dose 300 mg/kg, route intraperitoneal; details: in vivo
Rattus norvegicus [46] = assay: Anticonvulsant activity in albino Sprague-Dawley rat assessed as protection against maximal electroshock-induced seizures at 30 mg/kg, po after 4 hrs; format: functional, organism-based; set-up: dose 30 mg/kg
Mus musculus [47] = assay: Neurotoxicity in albino CF1 mouse assessed as minimal motor impairment at 30 to 300 mg/kg, ip after 4 hrs by rotarod test; details: in vivo
Mus musculus [48] = assay: Neurotoxicity in albino CF1 mouse assessed as minimal motor impairment at 3 mg/kg, ip after 0.5 hrs by rotarod test; format: toxicity, organism-based; set-up: dose 3 mg/kg, route intraperitoneal; details: in vivo
Mus musculus [49] = assay: Neurotoxicity in albino CF1 mouse assessed as minimal motor impairment at 10 mg/kg, ip after 0.5 hrs by rotarod test; format: toxicity, organism-based; set-up: dose 10 mg/kg, route intraperitoneal; details: in vivo
Mus musculus [50] = assay: Anticonvulsant activity against subcutaneous metrazole-induced seizures in ip dosed albino CF1 mouse assessed as minimum effective dose after 0.5 hrs; format: functional; details: albino CF1, 0.5 h, read-out: MED
Mus musculus [51] = assay: Anticonvulsant activity in albino CF1 mouse assessed as protection against maximal electroshock-induced seizures at 3 mg/kg, ip after 0.5 hrs; format: functional, organism-based; set-up: dose 3 mg/kg
Mus musculus [52] = assay: Anticonvulsant activity in albino CF1 mouse assessed as protection against maximal electroshock-induced seizures at 10 mg/kg, ip after 0.5 hrs; format: functional, organism-based; set-up: dose 10 mg/kg

Chain of Sodium channel protein type 2 subunit alpha (Q99250 whole entry): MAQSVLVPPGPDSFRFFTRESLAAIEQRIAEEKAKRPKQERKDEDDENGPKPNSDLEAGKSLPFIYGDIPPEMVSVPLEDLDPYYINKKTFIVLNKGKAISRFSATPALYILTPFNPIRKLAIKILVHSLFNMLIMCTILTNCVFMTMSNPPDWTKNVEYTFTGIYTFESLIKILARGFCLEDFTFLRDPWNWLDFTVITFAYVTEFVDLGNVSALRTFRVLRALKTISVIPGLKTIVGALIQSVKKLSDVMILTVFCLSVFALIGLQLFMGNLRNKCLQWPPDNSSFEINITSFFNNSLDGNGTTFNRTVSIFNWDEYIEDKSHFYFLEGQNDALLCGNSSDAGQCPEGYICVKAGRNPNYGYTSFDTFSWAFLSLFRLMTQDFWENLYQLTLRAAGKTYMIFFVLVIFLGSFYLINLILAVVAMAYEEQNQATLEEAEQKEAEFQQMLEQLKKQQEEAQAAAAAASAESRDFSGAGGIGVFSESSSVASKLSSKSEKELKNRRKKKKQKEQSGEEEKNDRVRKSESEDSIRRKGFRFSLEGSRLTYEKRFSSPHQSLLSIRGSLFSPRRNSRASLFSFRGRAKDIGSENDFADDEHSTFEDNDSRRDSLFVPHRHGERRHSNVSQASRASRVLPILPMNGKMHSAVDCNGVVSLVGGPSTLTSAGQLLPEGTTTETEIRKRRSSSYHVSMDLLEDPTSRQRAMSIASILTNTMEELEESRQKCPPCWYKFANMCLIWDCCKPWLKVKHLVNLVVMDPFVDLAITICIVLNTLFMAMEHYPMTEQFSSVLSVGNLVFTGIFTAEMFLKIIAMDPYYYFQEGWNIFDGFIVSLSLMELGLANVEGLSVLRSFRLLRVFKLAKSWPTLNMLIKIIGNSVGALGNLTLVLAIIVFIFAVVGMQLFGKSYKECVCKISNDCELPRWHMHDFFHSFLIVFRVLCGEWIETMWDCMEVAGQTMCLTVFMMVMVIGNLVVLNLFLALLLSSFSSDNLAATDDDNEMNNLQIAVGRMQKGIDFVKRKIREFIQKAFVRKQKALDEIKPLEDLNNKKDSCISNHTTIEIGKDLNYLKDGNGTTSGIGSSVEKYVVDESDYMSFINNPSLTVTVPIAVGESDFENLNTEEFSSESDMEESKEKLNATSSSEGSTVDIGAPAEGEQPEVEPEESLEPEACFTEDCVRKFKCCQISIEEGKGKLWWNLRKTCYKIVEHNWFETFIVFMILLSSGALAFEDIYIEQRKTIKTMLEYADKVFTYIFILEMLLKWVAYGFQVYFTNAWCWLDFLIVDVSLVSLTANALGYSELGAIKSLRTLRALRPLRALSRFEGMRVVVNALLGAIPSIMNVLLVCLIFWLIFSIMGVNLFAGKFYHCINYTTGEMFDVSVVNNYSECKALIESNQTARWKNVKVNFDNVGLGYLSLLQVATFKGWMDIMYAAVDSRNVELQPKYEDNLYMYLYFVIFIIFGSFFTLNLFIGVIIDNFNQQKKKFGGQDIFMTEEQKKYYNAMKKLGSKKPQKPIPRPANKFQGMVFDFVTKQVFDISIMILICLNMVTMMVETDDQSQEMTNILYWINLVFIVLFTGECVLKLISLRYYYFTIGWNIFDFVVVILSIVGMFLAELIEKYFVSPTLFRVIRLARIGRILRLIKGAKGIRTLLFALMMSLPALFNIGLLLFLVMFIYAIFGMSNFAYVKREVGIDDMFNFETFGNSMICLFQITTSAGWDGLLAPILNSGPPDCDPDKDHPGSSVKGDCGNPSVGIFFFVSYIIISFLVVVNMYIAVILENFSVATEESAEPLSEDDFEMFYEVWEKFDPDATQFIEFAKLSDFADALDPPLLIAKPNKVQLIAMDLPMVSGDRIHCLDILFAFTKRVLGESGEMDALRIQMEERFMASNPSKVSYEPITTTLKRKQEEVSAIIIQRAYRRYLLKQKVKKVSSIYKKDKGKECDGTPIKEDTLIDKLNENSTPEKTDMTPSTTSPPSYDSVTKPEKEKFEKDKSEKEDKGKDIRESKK

## FC(F)(F)c1ccc(-c2nc(-c3ccccc3)c[nH]2)cc1
Mus musculus [1]
  Activity: Active
Mus musculus [2]
  MED: > 300 mg/kg
Rattus norvegicus [3]
  Activity: inactive
Mus musculus [4]
  Activity: Non-toxic
Mus musculus [5]
  Activity: inactive
Mus musculus [6]
  Activity: inactive
Mus musculus [7]
  Activity: inactive
Mus musculus [8]
  MED: > 300 mg/kg
Mus musculus [9]
  Activity: inactive
Mus musculus [10]
  Activity: inactive
Mus musculus [11]
  Activity: inactive
Mus musculus [12]
  Activity: Non-toxic
Mus musculus [13]
  Activity: Non-toxic
Mus musculus [14]
  Activity: inactive
Mus musculus [15]
  Activity: inactive
[16]
  IC50: 10.1 µM
Mus musculus [17]
  minimal effective dose: 100 mg/kg
Mus musculus [18]
  minimal effective dose: 100 mg/kg
Mus musculus [19]
  Activity: inactive
Rattus norvegicus [20]
  Activity: inactive
Mus musculus [21]
  Activity: Non-toxic
Mus musculus [22]
  Activity: inactive
Mus musculus [23]
  ED50: 130 mg/kg
Mus musculus [24]
  Activity: Non-toxic
Mus musculus [25]
  Activity: Non-toxic
Mus musculus [26]
  Activity: inactive
Mus musculus [27]
  Activity: inactive
Mus musculus [28]
  Activity: Non-toxic
Rattus norvegicus [29]
  Activity: Non-toxic
Rattus norvegicus [30]
  Activity: inactive
Mus musculus [31]
  Activity: Active
Mus musculus [32]
  Activity: inactive
Rattus norvegicus [33]
  Activity: inactive
Mus musculus [34]
  Activity: inactive
Mus musculus [35]
  PI: >3.8
[36]
  TD50 at 1 h: > 500 mg/kg
Mus musculus [37]
  PI: > 3.8
Mus musculus [38]
  Activity: inactive
Mus musculus [39]
  minimal effective dose: > 300 mg/kg
Mus musculus [40]
  Activity: Non-toxic
Mus musculus [41]
  Activity: Non-toxic
Mus musculus [42]
  ED50: 130 mg/kg
Mus musculus [43]
  Activity: Non-toxic
Mus musculus [44]
  Activity: Non-toxic
Mus musculus [45]
  Activity: Non-toxic
Rattus norvegicus [46]
  Activity: inactive

## FC(F)(F)c1cccc(-c2c[nH]c(-c3ccccc3)n2)c1
Mus musculus [1]
  Activity: Active
Mus musculus [2]
  MED: 100 mg/kg
Mus musculus [47]
  Activity: Non-toxic
Mus musculus [5]
  Activity: inactive
Mus musculus [48]
  Activity: Non-toxic
Mus musculus [7]
  Activity: inactive
Mus musculus [8]
  MED: 100 mg/kg
Mus musculus [49]
  Activity: Non-toxic
Mus musculus [12]
  Activity: Non-toxic
Mus musculus [13]
  Activity: Non-toxic
Mus musculus [15]
  Activity: inactive
Mus musculus [17]
  minimal effective dose: > 30 mg/kg
Mus musculus [18]
  minimal effective dose: 100 mg/kg
Mus musculus [22]
  Activity: inactive
Mus musculus [25]
  Activity: Non-toxic
Mus musculus [26]
  Activity: inactive
Mus musculus [50]
  minimal effective dose: > 300 mg/kg
Mus musculus [27]
  Activity: inactive
Mus musculus [31]
  Activity: Active
Mus musculus [32]
  Activity: inactive
Mus musculus [51]
  Activity: inactive
Mus musculus [52]
  Activity: inactive
Mus musculus [38]
  Activity: Active
Mus musculus [39]
  minimal effective dose: > 300 mg/kg
Mus musculus [44]
  Activity: Non-toxic

From ChEMBL document CHEMBL1275354, “Anticonvulsant activity of 2,4(1H)-diarylimidazoles in mice and rats acute seizure models” (Bioorg Med Chem, 2010)
